Results as given in US8299048B2, “Hexahydrocyclopentyl[f]indazole sulfonamides and derivatives thereof as selective glucocorticoid receptor modulators” (Merck Sharp & Dohme Corp., priority 2008, dated 2012).
pEC50: −log10 of the molar value.

Target: T1, human GR (Homo sapiens, UniProt P04150)
T1 sequence (P04150 1-777): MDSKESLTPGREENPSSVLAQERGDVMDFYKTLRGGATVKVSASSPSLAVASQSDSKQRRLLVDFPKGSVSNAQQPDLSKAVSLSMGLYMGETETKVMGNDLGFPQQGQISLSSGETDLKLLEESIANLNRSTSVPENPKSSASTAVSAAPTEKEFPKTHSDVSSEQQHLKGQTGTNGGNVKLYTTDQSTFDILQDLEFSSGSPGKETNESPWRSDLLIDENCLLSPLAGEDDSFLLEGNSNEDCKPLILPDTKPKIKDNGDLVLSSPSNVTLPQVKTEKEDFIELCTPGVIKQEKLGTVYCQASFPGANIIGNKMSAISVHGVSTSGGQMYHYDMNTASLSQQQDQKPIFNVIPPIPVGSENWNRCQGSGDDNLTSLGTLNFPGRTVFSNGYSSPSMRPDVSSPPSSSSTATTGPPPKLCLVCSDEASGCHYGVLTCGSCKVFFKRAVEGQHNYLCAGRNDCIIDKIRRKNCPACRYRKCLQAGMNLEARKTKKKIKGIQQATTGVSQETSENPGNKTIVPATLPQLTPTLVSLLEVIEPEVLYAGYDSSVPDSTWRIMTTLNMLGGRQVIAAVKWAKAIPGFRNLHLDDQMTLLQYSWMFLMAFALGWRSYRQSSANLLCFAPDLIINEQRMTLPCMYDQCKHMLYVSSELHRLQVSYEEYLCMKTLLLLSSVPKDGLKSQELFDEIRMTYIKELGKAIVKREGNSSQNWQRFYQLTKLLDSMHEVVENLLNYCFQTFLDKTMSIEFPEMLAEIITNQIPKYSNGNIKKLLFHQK
Assay: Trans-Activation Modulation of Glucocorticoid Receptor (GRAMMER), MMTV-LUC reporter, agonist mode
Type: cell-based
Set-up: endogenous in cells
Conditions: for Emax: A549, A549 cells, maximum activity, read-out: Transactivation A549 Cells GRAMMER Emax; for pEC50: A549 cells, inflection point, read-out: Transactivation A549 Cells GRAMMER IP
Procedure, shortened: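 Readout is luciferase from a modified MMTV LTR promoter after 24 h compound exposure alongside 10 nM dexamethasone (100% activity reference), DMSO ≤1%.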

Emax [%] | pEC50 | Compound
83.3 | 6.43 | C[C@]12Cc3cnn(-c4ccc(F)cc4)c3C=C1CC[C@@H]2CN(CC#N)S(=O)(=O)c1ccc(F)cc1 [Example 46, N-(cyanomethyl)-4-fluoro-N-{[(4αR,5S)-1-(4-fluorophenyl)-4α-methyl-1,4,4α,5,6,7-hexahydrocyclopenta[f]indazol-5-yl]methyl}benzenesulfonamide]
58.3 | 6.20 | C[C@]12Cc3cnn(-c4ccc(F)cc4)c3C=C1CC[C@@H]2CN(CC#N)S(=O)(=O)c1cc(F)c(F)cc1F [Example 47, N-(cyanomethyl)-2,4,5-trifluoro-N-{[(4αR,5S)-1-(4-fluorophenyl)-4α-methyl-1,4,4α,5,6,7-hexahydrocyclopenta[f]indazol-5-yl]methyl}benzenesulfonamide]
8.8 | 6.00 | C[C@]12Cc3cnn(-c4ccc(F)cc4)c3C=C1CC[C@@H]2CN(CC#N)S(=O)(=O)Cc1ccccc1 [Example 48, N-(cyanomethyl)-N-{[(4αR,5S)-1-(4-fluorophenyl)-4α-methyl-1,4,4α,5,6,7-hexahydrocyclopenta[f]indazol-5-yl]methyl}-1-phenylmethanesulfonamide]
14.1 | 6.02 | Cc1ccccc1S(=O)(=O)N(CC#N)C[C@H]1CCC2=Cc3c(cnn3-c3ccc(F)cc3)C[C@@]21C [Example 49, N-(cyanomethyl)-N-{[(4αR,5S)-1-(4-fluorophenyl)-4α-methyl-1,4,4α,5,6,7-hexahydrocyclopenta[f]indazol-5-yl]methyl}-2-methylbenzenesulfonamide]
15.1 | 6.02 | C[C@]12Cc3cnn(-c4ccc(F)cc4)c3C=C1CC[C@@H]2CN(CC#N)S(=O)(=O)c1ccccc1Cl [Example 50, 2-chloro-N-(cyanomethyl)-N-{[(4αR,5S)-1-(4-fluorophenyl)-4α-methyl-1,4,4α,5,6,7-hexahydrocyclopenta[f]indazol-5-yl]methyl}benzenesulfonamide]
83.3 | 6.36 | C[C@]12Cc3cnn(-c4ccc(F)cc4)c3C=C1CC[C@@H]2CN(CC#N)S(=O)(=O)c1ccc(F)cc1F [Example 51, N-(cyanomethyl)-2,4-difluoro-N-{[(4αR,5S)-1-(4-fluorophenyl)-4α-methyl-1,4,4α,5,6,7-hexahydrocyclopenta[f]indazol-5-yl]methyl}benzenesulfonamide]
31.9 | 6.24 | Cc1nn(C)c(Cl)c1S(=O)(=O)N(CC#N)C[C@H]1CCC2=Cc3c(cnn3-c3ccc(F)cc3)C[C@@]21C [Example 52, 5-chloro-N-(cyanomethyl)-N-{[(4αR,5S)-1-(4-fluorophenyl)-4α-methyl-1,4,4α,5,6,7-hexahydrocyclopenta[f]indazol-5-yl]methyl}-1,3-dimethyl-1H-pyrazole-4-sulfonamide]
18.1 | 6.06 | C[C@]12Cc3cnn(-c4ccc(F)cc4)c3C=C1CC[C@@H]2CN(CC#N)S(=O)(=O)c1ccccc1-c1ccccc1 [Example 53, N-(cyanomethyl)-N-{[(4αR,5S)-1-(4-fluorophenyl)-4α-methyl-1,4,4α,5,6,7-hexahydrocyclopenta[f]indazol-5-yl]methyl}biphenyl-2-sulfonamide]
8.2 | 5.97 | C[C@]12Cc3cnn(-c4ccc(F)cc4)c3C=C1CC[C@@H]2CN(CC#N)S(=O)(=O)c1ccccc1C(F)(F)F [Example 54, N-(cyanomethyl)-N-{[(4αR,5S)-1-(4-fluorophenyl)-4α-methyl-1,4,4α,5,6,7-hexahydrocyclopenta[f]indazol-5-yl]methyl}-2-(trifluoromethyl)benzenesulfonamide]
47.7 | 6.26 | C[C@]12Cc3cnn(-c4ccc(F)cc4)c3C=C1CC[C@@H]2CN(CC#N)S(=O)(=O)c1ccccc1C#N [Example 55]
50.9 | 6.09 | Cc1oncc1S(=O)(=O)N(CCO)C[C@H]1CCC2=Cc3c(cnn3-c3ccc(F)cc3)C[C@@]21C [Example 56, N-{[(4αR,5S)-1-(4-fluorophenyl)-4α-methyl-1,4,4α,5,6,7-hexahydrocyclopenta[f]indazol-5-yl]methyl}-N-(2-hydroxyethyl)-5-methylisoxazole-4-sulfonamide]
3.1 | 5.97 | C[C@]12Cc3cnn(-c4ccc(F)cc4)c3C=C1CC[C@@H]2CN(CCO)S(=O)(=O)c1cc(Cl)c(Cl)s1 [Example 58, 4,5-dichloro-N-{[(4αR,5S)-1-(4-fluorophenyl)-4α-methyl-1,4,4α,5,6,7-hexahydrocyclopenta[f]indazol-5-yl]methyl}-N-(2-hydroxyethyl)thiophene-2-sulfonamide]
41.3 | 6.36 | C[C@]12Cc3cnn(-c4ccc(F)cc4)c3C=C1CC[C@@H]2CN(CCO)S(=O)(=O)c1ccc(F)c(F)c1 [Example 59]
23 | 6.11 | C[C@]12Cc3cnn(-c4ccc(F)cc4)c3C=C1CC[C@@H]2CN(CCO)S(=O)(=O)c1ccc(C#N)cc1Cl [Example 60, 2-chloro-4-cyano-N-{[(4αR,5S)-1-(4-fluorophenyl)-4α-methyl-1,4,4α,5,6,7-hexahydrocyclopenta[f]indazol-5-yl]methyl}-N-(2-hydroxyethyl)benezenesulfonamide]
5.8 | 6.38 | C[C@]12Cc3cnn(-c4ccc(F)cc4)c3C=C1CC[C@@H]2CN(CCO)S(=O)(=O)c1cccc(Cl)c1Cl [Example 61, 2,3-dichloro-N-{[(4αR,5S)-1-(4-fluorophenyl)-4α-methyl-1,4,4α,5,6,7-hexahydrocyclopenta[f]indazol-5-yl]methyl}-N-(2-hydroxyethyl)benezenesulfonamide]
12.4 | 5.78 | C[C@]12Cc3cnn(-c4ccc(F)cc4)c3C=C1CC[C@@H]2CNS(=O)(=O)Cc1cccnc1 [Example 169, N-{[(4αR,5S)-1-(4-fluorophenyl)-4α-methyl-1,4,4α,5,6,7-hexahydrocyclopenta[f]indazol-5-yl]methyl}-1-pyridin-3-ylmethanesulfonamide]
76 | 6.36 | Cc1noc(C)c1S(=O)(=O)N(CC1CCCO1)C[C@H]1CCC2=Cc3c(cnn3-c3ccc(F)cc3)C[C@@]21C (stereo partly drawn) [Example 170, N-{[(4αR,5S)-1-(4-fluorophenyl)-4α-methyl-1,4,4α,5,6,7-hexahydrocyclopenta[f]indazol-5-yl]methyl}-3,5-dimethyl-N-(tetrahydrofuran-2-ylmethyl)isoxazole-4-sulfonamide]
71.3 | 6.54 | CCS(=O)(=O)N(CCOC)C[C@H]1CCC2=Cc3c(cnn3-c3ccc(F)cc3)C[C@@]21C [Example 171, N-{[(4αR,5S)-1-(4-fluorophenyl)-4α-methyl-1,4,4α,5,6,7-hexahydrocyclopenta[f]indazol-5-yl]methyl}-N-(2-methoxyethyl)ethanesulfonamide]
10.7 | 6.40 | COCCN(C[C@H]1CCC2=Cc3c(cnn3-c3ccc(F)cc3)C[C@@]21C)S(=O)(=O)c1cn(C)nc1C(F)(F)F [Example 172, N-{[(4αR,5S)-1-(4-fluorophenyl)-4α-methyl-1,4,4α,5,6,7-hexahydrocyclopenta[f]indazol-5-yl]methyl}-N-(2-methoxyethyl)-1-methyl-3-(trifluoromethyl)-1H-pyrazole-4-sulfonamide]
70.4 | 6.44 | COCCN(C[C@H]1CCC2=Cc3c(cnn3-c3ccc(F)cc3)C[C@@]21C)S(=O)(=O)c1c(C)noc1C [Example 173, N-{[(4αR,5S)-1-(4-fluorophenyl)-4α-methyl-1,4,4α,5,6,7-hexahydrocyclopenta[f]indazol-5-yl]methyl}-N-(2-methoxyethyl)-3,5-dimethylisoxazole-4-sulfonamide]
81.1 | 6.28 | CCS(=O)(=O)N(CC1CCCO1)C[C@H]1CCC2=Cc3c(cnn3-c3ccc(F)cc3)C[C@@]21C (stereo partly drawn) [Example 174, N-{[(4αR,5S)-1-(4-fluorophenyl)-4α-methyl-1,4,4α,5,6,7-hexahydrocyclopenta[f]indazol-5-yl]methyl}-N-(tetrahydrofuran-2-ylmethyl)ethanesulfonamide]
22.7 | 6.42 | Cn1cc(S(=O)(=O)N(CC2CCCO2)C[C@H]2CCC3=Cc4c(cnn4-c4ccc(F)cc4)C[C@@]32C)c(C(F)(F)F)n1 (stereo partly drawn) [Example 175, N-{[(4αR,5S)-1-(4-fluorophenyl)-4α-methyl-1,4,4α,5,6,7-hexahydrocyclopenta[f]indazol-5-yl]methyl}-1-methyl-N-(tetrahydrofuran-2-ylmethyl)-3-(trifluoromethyl)-1H-pyrazole-4-sulfonamide]
56.9 | 6.61 | Cc1noc(C)c1S(=O)(=O)N(C)C[C@H]1CCC2=Cc3c(cnn3-c3ccc(F)cc3)C[C@@]21C [Example 176, N-{[(4αR,5S)-1-(4-fluorophenyl)-4α-methyl-1,4,4α,5,6,7-hexahydrocyclopenta[f]indazol-5-yl]methyl}-N,3,5-trimethylisoxazole-4-sulfonamide]
